± gives the expanded uncertainty stated by the source.
Assay: xn = mol fraction of the nth substance listed
Conditions: Liquid, Vibrating tube method, x1 = 1

CCC(C)O (centres undefined) [butan-2-ol] + CC(C)OC(C)C
mass density (293.15 K, 100 kPa): 806.7 ± 0.7 kg/m3 | mass density (293.15 K, 1000 kPa): 807.4 ± 0.7 kg/m3 | mass density (293.15 K, 5000 kPa): 810.4 ± 0.7 kg/m3 | mass density (293.15 K, 10000 kPa): 814 ± 0.7 kg/m3 | mass density (293.15 K, 15000 kPa): 817.4 ± 0.7 kg/m3 | mass density (293.15 K, 20000 kPa): 820.7 ± 0.7 kg/m3 | mass density (293.15 K, 25000 kPa): 823.9 ± 0.8 kg/m3 | mass density (293.15 K, 30000 kPa): 826.9 ± 0.8 kg/m3 | mass density (293.15 K, 35000 kPa): 829.8 ± 0.8 kg/m3 | mass density (293.15 K, 40000 kPa): 832.7 ± 0.8 kg/m3 | mass density (293.15 K, 45000 kPa): 835.4 ± 0.8 kg/m3 | mass density (293.15 K, 50000 kPa): 838.1 ± 0.8 kg/m3 | mass density (293.15 K, 55000 kPa): 840.6 ± 0.8 kg/m3 | mass density (293.15 K, 60000 kPa): 843.2 ± 0.8 kg/m3 | mass density (293.15 K, 65000 kPa): 845.6 ± 0.8 kg/m3 | mass density (293.15 K, 70000 kPa): 848 ± 0.9 kg/m3 | mass density (293.15 K, 80000 kPa): 852.6 ± 0.9 kg/m3 | mass density (293.15 K, 90000 kPa): 857.1 ± 0.9 kg/m3 | mass density (293.15 K, 100000 kPa): 861.2 ± 0.9 kg/m3 | mass density (293.15 K, 110000 kPa): 865.3 ± 0.9 kg/m3 | mass density (293.15 K, 120000 kPa): 869.2 ± 1 kg/m3 | mass density (293.15 K, 130000 kPa): 873 ± 1 kg/m3 | mass density (293.15 K, 140000 kPa): 876.6 ± 1 kg/m3 | mass density (298.15 K, 100 kPa): 802.6 ± 0.7 kg/m3 | mass density (298.15 K, 1000 kPa): 803.3 ± 0.7 kg/m3 | mass density (298.15 K, 5000 kPa): 806.4 ± 0.7 kg/m3 | mass density (298.15 K, 10000 kPa): 810.1 ± 0.7 kg/m3 | mass density (298.15 K, 15000 kPa): 813.7 ± 0.7 kg/m3 | mass density (298.15 K, 20000 kPa): 817 ± 0.7 kg/m3 | mass density (298.15 K, 25000 kPa): 820.2 ± 0.8 kg/m3 | mass density (298.15 K, 30000 kPa): 823.4 ± 0.8 kg/m3 | mass density (298.15 K, 35000 kPa): 826.4 ± 0.8 kg/m3 | mass density (298.15 K, 40000 kPa): 829.2 ± 0.8 kg/m3 | mass density (298.15 K, 45000 kPa): 832 ± 0.8 kg/m3 | mass density (298.15 K, 50000 kPa): 834.7 ± 0.8 kg/m3 | mass density (298.15 K, 55000 kPa): 837.4 ± 0.8 kg/m3 | mass density (298.15 K, 60000 kPa): 839.9 ± 0.8 kg/m3 | mass density (298.15 K, 65000 kPa): 842.4 ± 0.8 kg/m3 | mass density (298.15 K, 70000 kPa): 844.8 ± 0.9 kg/m3 | mass density (298.15 K, 80000 kPa): 849.5 ± 0.9 kg/m3 | mass density (298.15 K, 90000 kPa): 854.1 ± 0.9 kg/m3 | mass density (298.15 K, 100000 kPa): 858.3 ± 0.9 kg/m3 | mass density (298.15 K, 110000 kPa): 862.4 ± 1 kg/m3 | mass density (298.15 K, 120000 kPa): 866.3 ± 1 kg/m3 | mass density (298.15 K, 130000 kPa): 870.1 ± 1 kg/m3 | mass density (298.15 K, 140000 kPa): 873.9 ± 1 kg/m3 | mass density (313.15 K, 100 kPa): 789.6 ± 0.7 kg/m3 | mass density (313.15 K, 1000 kPa): 790.3 ± 0.7 kg/m3 | mass density (313.15 K, 5000 kPa): 793.7 ± 0.7 kg/m3 | mass density (313.15 K, 10000 kPa): 797.8 ± 0.7 kg/m3 | mass density (313.15 K, 15000 kPa): 801.6 ± 0.7 kg/m3 | mass density (313.15 K, 20000 kPa): 805.3 ± 0.8 kg/m3 | mass density (313.15 K, 25000 kPa): 808.6 ± 0.8 kg/m3 | mass density (313.15 K, 30000 kPa): 812.1 ± 0.8 kg/m3 | mass density (313.15 K, 35000 kPa): 815.3 ± 0.8 kg/m3 | mass density (313.15 K, 40000 kPa): 818.4 ± 0.8 kg/m3 | mass density (313.15 K, 45000 kPa): 821.3 ± 0.8 kg/m3 | mass density (313.15 K, 50000 kPa): 824.3 ± 0.8 kg/m3 | mass density (313.15 K, 55000 kPa): 827.1 ± 0.8 kg/m3 | mass density (313.15 K, 60000 kPa): 829.8 ± 0.9 kg/m3 | mass density (313.15 K, 65000 kPa): 832.5 ± 0.9 kg/m3 | mass density (313.15 K, 70000 kPa): 835 ± 0.9 kg/m3 | mass density (313.15 K, 80000 kPa): 839.9 ± 0.9 kg/m3 | mass density (313.15 K, 90000 kPa): 844.7 ± 0.9 kg/m3 | mass density (313.15 K, 100000 kPa): 849.1 ± 1 kg/m3 | mass density (313.15 K, 110000 kPa): 853.5 ± 1 kg/m3 | mass density (313.15 K, 120000 kPa): 857.6 ± 1 kg/m3 | mass density (313.15 K, 130000 kPa): 861.5 ± 1 kg/m3 | mass density (313.15 K, 140000 kPa): 865.4 ± 1 kg/m3 | mass density (333.15 K, 100 kPa): 770.8 ± 0.7 kg/m3 | mass density (333.15 K, 1000 kPa): 771.8 ± 0.7 kg/m3 | mass density (333.15 K, 5000 kPa): 775.7 ± 0.7 kg/m3 | mass density (333.15 K, 10000 kPa): 780.3 ± 0.7 kg/m3 | mass density (333.15 K, 15000 kPa): 784.7 ± 0.7 kg/m3 | mass density (333.15 K, 20000 kPa): 788.9 ± 0.8 kg/m3 | mass density (333.15 K, 25000 kPa): 792.7 ± 0.8 kg/m3 | mass density (333.15 K, 30000 kPa): 796.4 ± 0.8 kg/m3 | mass density (333.15 K, 35000 kPa): 800 ± 0.8 kg/m3 | mass density (333.15 K, 40000 kPa): 803.5 ± 0.8 kg/m3 | mass density (333.15 K, 45000 kPa): 806.6 ± 0.8 kg/m3 | mass density (333.15 K, 50000 kPa): 809.8 ± 0.8 kg/m3 | mass density (333.15 K, 55000 kPa): 812.8 ± 0.9 kg/m3 | mass density (333.15 K, 60000 kPa): 815.8 ± 0.9 kg/m3 | mass density (333.15 K, 65000 kPa): 818.7 ± 0.9 kg/m3 | mass density (333.15 K, 70000 kPa): 821.4 ± 0.9 kg/m3 | mass density (333.15 K, 80000 kPa): 826.8 ± 0.9 kg/m3 | mass density (333.15 K, 90000 kPa): 831.9 ± 1 kg/m3 | mass density (333.15 K, 100000 kPa): 836.7 ± 1 kg/m3 | mass density (333.15 K, 110000 kPa): 841.3 ± 1 kg/m3 | mass density (333.15 K, 120000 kPa): 845.6 ± 1 kg/m3 | mass density (333.15 K, 130000 kPa): 849.9 ± 1.1 kg/m3 | mass density (333.15 K, 140000 kPa): 853.9 ± 1.1 kg/m3 | mass density (353.19 K, 100 kPa): 750.3 ± 0.7 kg/m3 | mass density (353.19 K, 1000 kPa): 751.4 ± 0.7 kg/m3 | mass density (353.19 K, 5000 kPa): 756 ± 0.7 kg/m3 | mass density (353.19 K, 10000 kPa): 761.3 ± 0.7 kg/m3 | mass density (353.19 K, 15000 kPa): 766.4 ± 0.8 kg/m3 | mass density (353.19 K, 20000 kPa): 771 ± 0.8 kg/m3 | mass density (353.19 K, 25000 kPa): 775.4 ± 0.8 kg/m3 | mass density (353.19 K, 30000 kPa): 779.5 ± 0.8 kg/m3 | mass density (353.19 K, 35000 kPa): 783.5 ± 0.8 kg/m3 | mass density (353.19 K, 40000 kPa): 787.2 ± 0.8 kg/m3 | mass density (353.19 K, 45000 kPa): 790.8 ± 0.8 kg/m3 | mass density (353.19 K, 50000 kPa): 794.4 ± 0.9 kg/m3 | mass density (353.19 K, 55000 kPa): 797.7 ± 0.9 kg/m3 | mass density (353.19 K, 60000 kPa): 801 ± 0.9 kg/m3 | mass density (353.19 K, 65000 kPa): 804.1 ± 0.9 kg/m3 | mass density (353.19 K, 70000 kPa): 807.2 ± 0.9 kg/m3 | mass density (353.19 K, 80000 kPa): 812.9 ± 1 kg/m3 | mass density (353.19 K, 90000 kPa): 818.3 ± 1 kg/m3 | mass density (353.19 K, 100000 kPa): 823.5 ± 1 kg/m3 | mass density (353.19 K, 110000 kPa): 828.5 ± 1.1 kg/m3 | mass density (353.19 K, 120000 kPa): 833.1 ± 1.1 kg/m3 | mass density (353.19 K, 130000 kPa): 837.6 ± 1.1 kg/m3 | mass density (353.19 K, 140000 kPa): 842 ± 1.1 kg/m3 | mass density (373.24 K, 1000 kPa): 729.1 ± 0.7 kg/m3 | mass density (373.24 K, 5000 kPa): 734.5 ± 0.7 kg/m3 | mass density (373.24 K, 10000 kPa): 740.8 ± 0.7 kg/m3 | mass density (373.24 K, 15000 kPa): 746.6 ± 0.8 kg/m3 | mass density (373.24 K, 20000 kPa): 751.9 ± 0.8 kg/m3 | mass density (373.24 K, 25000 kPa): 757 ± 0.8 kg/m3 | mass density (373.24 K, 30000 kPa): 761.6 ± 0.8 kg/m3 | mass density (373.24 K, 35000 kPa): 766.1 ± 0.8 kg/m3 | mass density (373.24 K, 40000 kPa): 770.3 ± 0.8 kg/m3 | mass density (373.24 K, 45000 kPa): 774.4 ± 0.9 kg/m3 | mass density (373.24 K, 50000 kPa): 778.1 ± 0.9 kg/m3 | mass density (373.24 K, 55000 kPa): 781.8 ± 0.9 kg/m3 | mass density (373.24 K, 60000 kPa): 785.3 ± 0.9 kg/m3 | mass density (373.24 K, 65000 kPa): 788.8 ± 0.9 kg/m3 | mass density (373.24 K, 70000 kPa): 792.1 ± 1 kg/m3 | mass density (373.24 K, 80000 kPa): 798.4 ± 1 kg/m3 | mass density (373.24 K, 90000 kPa): 804.3 ± 1 kg/m3 | mass density (373.24 K, 100000 kPa): 809.8 ± 1.1 kg/m3 | mass density (373.24 K, 110000 kPa): 815.1 ± 1.1 kg/m3 | mass density (373.24 K, 120000 kPa): 820.1 ± 1.1 kg/m3 | mass density (373.24 K, 130000 kPa): 824.9 ± 1.2 kg/m3 | mass density (373.24 K, 140000 kPa): 829.5 ± 1.2 kg/m3 | mass density (393.28 K, 1000 kPa): 704.8 ± 0.7 kg/m3 | mass density (393.28 K, 5000 kPa): 711.3 ± 0.7 kg/m3 | mass density (393.28 K, 10000 kPa): 718.8 ± 0.7 kg/m3 | mass density (393.28 K, 15000 kPa): 725.6 ± 0.8 kg/m3 | mass density (393.28 K, 20000 kPa): 731.7 ± 0.8 kg/m3 | mass density (393.28 K, 25000 kPa): 737.4 ± 0.8 kg/m3 | mass density (393.28 K, 30000 kPa): 742.7 ± 0.8 kg/m3 | mass density (393.28 K, 35000 kPa): 747.8 ± 0.8 kg/m3 | mass density (393.28 K, 40000 kPa): 752.5 ± 0.9 kg/m3 | mass density (393.28 K, 45000 kPa): 757 ± 0.9 kg/m3 | mass density (393.28 K, 50000 kPa): 761.2 ± 0.9 kg/m3 | mass density (393.28 K, 55000 kPa): 765.4 ± 0.9 kg/m3 | mass density (393.28 K, 60000 kPa): 769.2 ± 0.9 kg/m3 | mass density (393.28 K, 65000 kPa): 772.9 ± 1 kg/m3 | mass density (393.28 K, 70000 kPa): 776.6 ± 1 kg/m3 | mass density (393.28 K, 80000 kPa): 783.4 ± 1 kg/m3 | mass density (393.28 K, 90000 kPa): 789.8 ± 1.1 kg/m3 | mass density (393.28 K, 100000 kPa): 795.8 ± 1.1 kg/m3 | mass density (393.28 K, 110000 kPa): 801.5 ± 1.1 kg/m3 | mass density (393.28 K, 120000 kPa): 806.8 ± 1.2 kg/m3 | mass density (393.28 K, 130000 kPa): 811.9 ± 1.2 kg/m3 | mass density (393.28 K, 140000 kPa): 816.8 ± 1.2 kg/m3
